From patent EP4721758A1, “NOVEL MEDICINE FOR TREATING OSTEOSARCOMA” (Japanese Foundation For Cancer Research, priority 2023, dated 2024)
Each block holds one compound with its values, some of them ahead of it.

Legend:
NOS-10 cells = assay: Cell viability (CellTiter-Glo); type: cell-based, human; settings: for IC50 values: in the presence of 40 nM obatoclax, Fig. 4-4
Protocol: In this example, the drug sensitivity of MIK665, an Mcl-1 inhibitor, was evaluated in NOS-10 cells. Various concentrations (i.e., 0, 1, 3, 10, 30, 100, 300, 1000, 3000, 10000, 30000 nM) of MIK665 (TargetMol) were administered, and cell viability was measured using CellTiter-Glo assay reagent 72 hours after drug treatment. As a control, osteosarcoma cells MG-63 cells, without amplification of the copy number of MCL1, were used. Data are shown as MG-63 mean ± SD (n = 3).
(§1) Specifically, four types of osteosarcoma cells (i.e., NOS-10 cells, Sa-xeno-147 cells, G-292 cells, and Sa-xeno-184 cells) were treated with six types of BH3 mimetics (i.e., obatoclax, navitoclax, venetoclax, A-1331852, AZD5991, and MIK665), and the cell viability of the osteosarcoma cells was measured.
Meanwhile, the combined effect of AZD5991 and 3 µ(micro)M Navitoclax on cell viability of NOS-10 cells was examined. Cell viability was measured using CellTiter-Glo assay reagent 72 hours after drug treatment. Data are shown as mean ± SD (n = 3).
(§2) Specifically, the present inventors investigated the combined effects of 40 nM obatoclax with DOX (Fig. 4-4(E), Fig. 4-5(A)), with CDDP (Fig. 4-4(F), Fig. 4-5(B)), and with MTX (Fig. 4-4(G), Fig. 4-5(C)) on cell viability in NOS-10 cells and Sa-xeno-147 cells. Cell viability was measured for each cell 72 hours after each drug treatment using CellTiter-Glo assay reagent. All data are shown as mean ± SD (n = 3). IC50 values were calculated and the data were graphed using GraphPad Prism.
To identify suitable combination partners of Mcl-1 inhibitors such as obatoclax for osteosarcoma treatment, further drug screening was performed using an in-house library of inhibitors in the presence of obatoclax in osteosarcoma cells. Specifically, the effect of combination of 35 nM obatoclax with an inhibitor out of 94 molecular targeted drugs in the library on cell viability of NOS-10 cells was examined. Cell viability was measured using CellTiter-Glo assay reagent 72 hours after the cells were treated with each combination of drugs. All data are shown as mean ± SD (n = 3). GraphPad Prism was used to calculate IC50 values and graph the data.

BCL-xL = BCL-xL (Homo sapiens, UniProt Q07817); settings: cited from earlier work
BCL-2 = BCL-2 (Homo sapiens, UniProt P10415); settings: cited from earlier work
Sa-xeno-184 cells = assay: Cell viability, BH3 mimetic drug sensitivity; type: cell-based, human; settings: cells with MCL1 amplification, Fig. 4-1
Protocol: as §1

Sa-xeno-147 cells = assay: Cell viability (CellTiter-Glo); type: cell-based, human; settings: for cell viability: BH3 mimetic drug sensitivity, Fig. 4-1; for IC50 values: in the presence of 40 nM obatoclax, 72 hours, Fig. 4-5
Protocol: as §1, §2

G-292 cells = assay: Cell viability, BH3 mimetic drug sensitivity; type: cell-based, human; settings: cells with BCL2L1 amplification, Fig. 4-1
Protocol: as §1

osteosarcoma cells [1] = assay: Cell viability, combined use of Mcl-1 inhibitor and Bcl-xL inhibitor; type: cell-based
Source text: In this example, AZD5991 or MIK665 was used as an Mcl-1 inhibitor, and A-1331852 was used as a Bcl-xL inhibitor.

osteosarcoma cells [2] = assay: Inhibitor library drug screening, cell viability (CellTiter-Glo); type: cell-based, human; settings: nine osteosarcoma cell lines and two PDC, 72 hours, heatmap Fig. 1A
Protocol: The nine human osteosarcoma cell lines (MG-63 cells, NY cells, HOS cells, HuO9 cells, HuO-3N1 cells, SJSA-1 cells, NOS-1 cells, NOS-10 cells, and G-292 clone A141B1 (G-292) cells) were purchased from the American Type Culture Collection, the RIKEN BioResource Research Center, or the Japanese Collection of Research Bioresources Cell Bank (JCRC) and used at lower passage numbers.
Specifically, • MG-63 cells, NY cells, and HOS cells were cultured in 96-well plates using MEM (Wako) comprising 10% FBS (CORNING), 1% non-essential amino acid solution (Wako), and 100 µ(micro)g/mL kanamycin (MEIJI), • HuO9 cells, HuO-3N1 cells, SJSA-1 cells, NOS-1 cells, and NOS-10 cells were cultured in 96-well plates using RPMI-1640 medium (Wako) comprising 10% FBS and 100 µ(micro)g/mL kanamycin. • G-292 clone A141B1 (G-292) cells were cultured in 96-well plate using McCoy's 5a medium comprising 10% FBS, • Sa-xeno-147 and Sa-xeno-184 cell lines were developed from patient-derived xenograft tumors and were cultured in collagen-coated dishes with RPMI 1640/Ham's F12 (1:1) medium comprising 15% FBS, 20 mM HEPES, and antibiotic-antimycotic solution (Sigma-Aldrich). Cells were cultured at 37°C and 5% CO2.
Cells were seeded in triplicate in 96-well plates (Greiner) or type I collagen-coated plates (IWAKI) at a density of 2000 cells/well and cultured for at least 24 h. After 72 hours of incubation with any of the 96 compounds of the library of the inhibitors, cells were incubated with CellTiter-Glo reagent (Promega) for 2 minutes on a Titramax 100 plate shaker (Heidolph), and after 10 minutes of equilibration, cell viability assays of each osteosarcoma cell were performed by measuring luminescence using a Tristar LB941 multimode microplate reader (Berthold Technologies). The cell viability was calculated as a ratio of the DMSO control to evaluate their effects on osteosarcoma cell proliferation (n=2).

osteosarcoma cell lines = assay: IC50 of obatoclax, cell viability (CellTiter-Glo); type: cell-based; settings: Homo sapiens; 11 osteosarcoma cell lines; 72 hours; compared with Cmax; Fig. 4-3
Protocol: In this example, G-292 cells, NY cells, NOS-1 cells, NOS-10 cells, HuO9 cells, SJSA-1 cells, MG-63 cells, HuO-3N1 cells, HOS cells, Sa-xeno-147 cells, and Sa-xeno-184 cells were used as osteosarcoma cell lines, and LC-2/ad cells, H2228 cells, H226 cells, H3122 cells, and A549 cells were used as lung adenocarcinoma cell lines.
After 72 hours from treatment with obatoclax, the cell viability of each cell was measured using the CellTiter-Glo Assay reagent. The IC50 value was calculated using Prism software.

[3] = serum; read-out: maximum concentration of obatoclax in serum (Cmax); cited from earlier work
[4] = IGF-1R inhibitor in combination with Mcl-1 inhibitors such as obatoclax, AZD5991, and MIK665, 72 hours, Fig. 5-1
[5] = BH3 mimetic drug sensitivity, cells with MCL1 amplification, Fig. 4-1

BCL-2, sequence (P10415 whole entry): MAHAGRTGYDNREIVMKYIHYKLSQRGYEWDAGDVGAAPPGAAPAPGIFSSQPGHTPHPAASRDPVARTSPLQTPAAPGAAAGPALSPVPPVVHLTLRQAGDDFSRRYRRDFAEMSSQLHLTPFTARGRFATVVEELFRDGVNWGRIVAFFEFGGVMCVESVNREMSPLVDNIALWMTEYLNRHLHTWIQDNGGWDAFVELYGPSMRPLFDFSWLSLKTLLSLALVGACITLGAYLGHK
BCL-xL, sequence (Q07817 whole entry): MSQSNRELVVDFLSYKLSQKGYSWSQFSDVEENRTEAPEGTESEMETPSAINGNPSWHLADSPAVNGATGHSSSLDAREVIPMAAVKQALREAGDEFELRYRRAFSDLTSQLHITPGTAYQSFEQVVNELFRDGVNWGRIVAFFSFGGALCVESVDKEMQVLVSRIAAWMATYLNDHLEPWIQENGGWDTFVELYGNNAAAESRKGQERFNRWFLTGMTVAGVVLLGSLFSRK

Compound: COc1cc(N2CCC(N)CC2)ccc1Nc1ncc(Cl)c(-c2c[nH]c3ccccc23)n1 [AZD3463]
IC50 value (NOS-10 cells; [4]): significantly reduced
growth inhibitory effect (NOS-10 cells; [4]): enhanced

Compound: Cc1c(-c2c(-c3ccc(F)o3)sc3ncnc(O[C@H](Cc4ccccc4OCc4ccnn4CC(F)(F)F)C(=O)O)c23)ccc(OCCN2CCN(C)CC2)c1Cl [S63845]
binding to BCL-XL (BCL-xL): not to bind
binding to BCL-2 (BCL-2): not to bind

Compound: MIK665
cell viability (NOS-10 cells; [5]): reduce cell viability at relatively low concentrations
cell viability (NOS-10 cells; low concentrations of MIK665 (range 0-30000 nM), 72 hours, compared to MG-63 cells without MCL1 amplification, Fig. 2): reduced cell viability
cell viability (Sa-xeno-184 cells): reduce cell viability at relatively low concentrations
cell viability (Sa-xeno-147 cells): moderate inhibitory effects

Compound: Cc1c(-c2ccc(N3CCc4cccc(C(=O)Nc5nc6ccccc6s5)c4C3)nc2C(=O)O)cnn1CC12CC3CC(CC(C3)C1)C2 [A-1331852]
cell viability (G-292 cells): most effective in reducing cell viability
cell viability (osteosarcoma cells [1]; A-1331852 alone, Fig. 3-5, Fig. 3-6): almost no effect on reduction of cell viability
cell viability (osteosarcoma cells [1]; A-1331852 in combination with AZD5991, Fig. 3-5): strong effect on reduction of cell viability
cell viability (osteosarcoma cells [1]; A-1331852 in combination with MIK665, Fig. 3-6): strong effect on reduction of cell viability

Compound: CC(C)C[C@H](NC(=O)[C@H](CCc1ccccc1)NC(=O)CN1CCOCC1)C(=O)N[C@@H](Cc1ccccc1)C(=O)N[C@@H](CC(C)C)C(=O)[C@@]1(C)CO1 [carfilzomib]
osteosarcoma cell proliferation (cell viability) (osteosarcoma cells [2]): extensive inhibition of osteosarcoma cell proliferation

Compound: COc1cccc2c1C(=O)c1c(O)c3c(c(O)c1C2=O)C[C@@](O)(C(=O)CO)C[C@@H]3O[C@H]1C[C@H](N)[C@H](O)[C@H](C)O1 [DOX, Doxorubicin]
IC50 values (NOS-10 cells; 72 hours): not decreased
IC50 values (Sa-xeno-147 cells): not decreased

Compound: Cc1cc(OCCCc2c3n(c4c(-c5c(C)nn(C)c5C)c(Cl)ccc24)[C@H](C)CN(c2cn(C)c4ccc(C(=O)O)cc24)C3=O)cc(C)c1Cl [VU661013]
inhibition of BCL-xL (BCL-xL): does not significantly inhibit
inhibition of BCL-2 (BCL-2): does not significantly inhibit

Compound: Cc1c2c(nn1C)CSCc1cc(n(C)n1)CSc1cc(c3ccccc3c1)OCCCc1c(C(=O)O)n(C)c3c-2c(Cl)ccc13 [AZD5991]
cell viability (NOS-10 cells; AZD5991 combined with 3 µM Navitoclax, 72 hours, Fig. 4-2): increased the inhibitory effect on cell viability
cell viability (NOS-10 cells; [5]): reduce cell viability at relatively low concentrations
cell viability (Sa-xeno-184 cells): reduce cell viability at relatively low concentrations
cell viability (Sa-xeno-147 cells): moderate inhibitory effects

Compound: CC(C)C[C@H](NC(=O)[C@H](Cc1ccccc1)NC(=O)c1cnccn1)B(O)O [bortezomib]
osteosarcoma cell proliferation (cell viability) (osteosarcoma cells [2]): extensive inhibition of osteosarcoma cell proliferation

Compound: CN(Cc1cnc2nc(N)nc(N)c2n1)c1ccc(C(=O)N[C@@H](CCC(=O)O)C(=O)O)cc1 [MTX, methotrexate]
IC50 values (NOS-10 cells; 72 hours): not decreased
IC50 values (Sa-xeno-147 cells): not decreased

IC50 (osteosarcoma cell lines): < 176 nM
Compound: COC1=CC(c2cc3ccccc3[nH]2)=N/C1=C\c1[nH]c(C)cc1C [obatoclax]
Cmax [3]: 176 nM

Compound: [NH2][Pt]([NH2])([Cl])[Cl] [CDDP, cisplatin]
IC50 values (NOS-10 cells; 72 hours): not decreased
IC50 values (Sa-xeno-147 cells): not decreased
